Data as given in ChEMBL document CHEMBL5053535, “Design, synthesis and biological evaluation of novel aminopyrazole- and 7-azaindole-based Nek1 inhibitors and their effects on zebrafish kidney development” (Bioorg Med Chem Lett, 2021).
≈ marks a conversion by molar mass, not a printed value. Blank lines part the entries; values can stand above or below the compound they belong to.

Columns and labels:
[1] = target: T1, Serine/threonine-protein kinase Nek1 (Homo sapiens) (UniProt Q96PY6); assay: Inhibition of human NEK1 using myelin basic protein as substrate assessed as residual activity at 1 uM in presence of [gamma-33P]-ATP by radiometric hotspot kinase assay relative to control
T1 sequence (whole entry): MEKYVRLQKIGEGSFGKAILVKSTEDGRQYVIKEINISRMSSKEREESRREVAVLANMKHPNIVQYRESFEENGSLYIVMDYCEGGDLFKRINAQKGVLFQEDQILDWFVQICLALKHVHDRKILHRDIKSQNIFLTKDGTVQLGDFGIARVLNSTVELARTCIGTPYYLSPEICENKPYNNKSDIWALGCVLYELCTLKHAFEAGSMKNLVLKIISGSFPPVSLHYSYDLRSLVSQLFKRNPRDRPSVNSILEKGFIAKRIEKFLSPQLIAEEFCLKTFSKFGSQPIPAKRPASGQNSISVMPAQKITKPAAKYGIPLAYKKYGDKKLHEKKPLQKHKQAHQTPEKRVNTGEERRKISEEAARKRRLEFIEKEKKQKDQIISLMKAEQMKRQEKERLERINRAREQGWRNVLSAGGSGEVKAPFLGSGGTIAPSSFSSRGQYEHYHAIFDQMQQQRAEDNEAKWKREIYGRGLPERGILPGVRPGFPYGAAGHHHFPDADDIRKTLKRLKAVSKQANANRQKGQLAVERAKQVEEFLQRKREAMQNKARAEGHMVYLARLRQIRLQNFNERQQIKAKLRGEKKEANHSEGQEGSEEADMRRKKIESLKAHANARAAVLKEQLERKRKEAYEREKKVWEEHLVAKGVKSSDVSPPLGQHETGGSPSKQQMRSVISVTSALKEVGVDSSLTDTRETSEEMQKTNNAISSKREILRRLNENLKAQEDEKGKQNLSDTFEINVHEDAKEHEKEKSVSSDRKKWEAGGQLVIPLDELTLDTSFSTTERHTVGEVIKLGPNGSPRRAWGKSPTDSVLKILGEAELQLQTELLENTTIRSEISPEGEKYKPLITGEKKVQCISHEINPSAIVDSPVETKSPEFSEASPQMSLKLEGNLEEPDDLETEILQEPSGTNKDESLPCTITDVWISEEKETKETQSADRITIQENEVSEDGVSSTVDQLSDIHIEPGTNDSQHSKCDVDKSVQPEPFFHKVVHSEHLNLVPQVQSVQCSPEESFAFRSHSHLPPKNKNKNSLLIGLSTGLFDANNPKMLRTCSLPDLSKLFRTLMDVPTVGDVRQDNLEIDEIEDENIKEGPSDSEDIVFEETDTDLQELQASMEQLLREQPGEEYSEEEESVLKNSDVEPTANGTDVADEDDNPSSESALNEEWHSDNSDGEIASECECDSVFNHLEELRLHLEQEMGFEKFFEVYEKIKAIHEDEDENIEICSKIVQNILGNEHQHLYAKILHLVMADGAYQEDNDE

[2] = target: T2, Serine/threonine-protein kinase Nek1 (Homo sapiens, UniProt Q96PY6); assay: Inhibition of human NEK1 using myelin basic protein as substrate assessed as residual activity in presence of [gamma-33P]-ATP by radiometric hotspot kinase assay relative to control
T2 sequence (Q96PY6 whole entry): T1 sequence (whole entry)

[3] = target: Cyclin-dependent kinase 2/cyclin E1 (Homo sapiens) (UniProt P24864+P24941); assay: (§1) Inhibition of human recombinant full length C-terminal His6 tagged CDK2/ N-terminal GST-tagged Cyclin E expressed in baculovirus infected Sf21 insect cells using histone H1 as substrate assessed as residual activity at 1 uM pretreated for 20 mins followed by [33P]-ATP addition measured after 120 mins by radiometric hotspot kinase assay relative to control; details: time 140.0 min
[4] = target: T3, Serine/threonine-protein kinase Chk1 (Homo sapiens) (UniProt O14757); assay: as §1, with “N-terminal His” for “C-terminal His6”, “CHK1” for “CDK2/ N-terminal GST-tagged Cyclin E”, “CHKtide” for “histone H1”; details: time 140.0 min
T3 sequence (whole entry): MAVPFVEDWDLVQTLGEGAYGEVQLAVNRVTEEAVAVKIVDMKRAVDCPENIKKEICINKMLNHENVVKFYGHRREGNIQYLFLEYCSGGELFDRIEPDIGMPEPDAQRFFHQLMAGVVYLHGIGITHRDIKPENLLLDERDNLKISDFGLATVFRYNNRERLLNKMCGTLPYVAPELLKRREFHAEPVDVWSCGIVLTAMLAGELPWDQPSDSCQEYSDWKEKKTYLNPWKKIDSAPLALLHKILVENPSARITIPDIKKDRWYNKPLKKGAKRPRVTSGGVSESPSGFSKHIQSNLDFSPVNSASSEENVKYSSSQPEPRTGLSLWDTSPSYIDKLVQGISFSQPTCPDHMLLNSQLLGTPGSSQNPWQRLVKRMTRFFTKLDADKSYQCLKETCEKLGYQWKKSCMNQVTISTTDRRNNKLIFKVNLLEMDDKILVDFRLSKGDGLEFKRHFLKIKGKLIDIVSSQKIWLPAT

[5] = target: Vascular endothelial growth factor receptor 2 (Homo sapiens) (UniProt P35968); assay: Inhibition of human recombinant C-terminal His6 tagged VEGFR2 (789 to 1356 residues) expressed in baculovirus infected insect cells assessed as residual activity at 1 uM pretreated for 20 mins followed by [33P]-ATP addition measured after 120 mins by radiometric hotspot kinase assay relative to control; details: time 140.0 min
Vascular endothelial growth factor receptor 2 (Homo sapiens), sequence (P35968 whole entry, the tested form may be a part): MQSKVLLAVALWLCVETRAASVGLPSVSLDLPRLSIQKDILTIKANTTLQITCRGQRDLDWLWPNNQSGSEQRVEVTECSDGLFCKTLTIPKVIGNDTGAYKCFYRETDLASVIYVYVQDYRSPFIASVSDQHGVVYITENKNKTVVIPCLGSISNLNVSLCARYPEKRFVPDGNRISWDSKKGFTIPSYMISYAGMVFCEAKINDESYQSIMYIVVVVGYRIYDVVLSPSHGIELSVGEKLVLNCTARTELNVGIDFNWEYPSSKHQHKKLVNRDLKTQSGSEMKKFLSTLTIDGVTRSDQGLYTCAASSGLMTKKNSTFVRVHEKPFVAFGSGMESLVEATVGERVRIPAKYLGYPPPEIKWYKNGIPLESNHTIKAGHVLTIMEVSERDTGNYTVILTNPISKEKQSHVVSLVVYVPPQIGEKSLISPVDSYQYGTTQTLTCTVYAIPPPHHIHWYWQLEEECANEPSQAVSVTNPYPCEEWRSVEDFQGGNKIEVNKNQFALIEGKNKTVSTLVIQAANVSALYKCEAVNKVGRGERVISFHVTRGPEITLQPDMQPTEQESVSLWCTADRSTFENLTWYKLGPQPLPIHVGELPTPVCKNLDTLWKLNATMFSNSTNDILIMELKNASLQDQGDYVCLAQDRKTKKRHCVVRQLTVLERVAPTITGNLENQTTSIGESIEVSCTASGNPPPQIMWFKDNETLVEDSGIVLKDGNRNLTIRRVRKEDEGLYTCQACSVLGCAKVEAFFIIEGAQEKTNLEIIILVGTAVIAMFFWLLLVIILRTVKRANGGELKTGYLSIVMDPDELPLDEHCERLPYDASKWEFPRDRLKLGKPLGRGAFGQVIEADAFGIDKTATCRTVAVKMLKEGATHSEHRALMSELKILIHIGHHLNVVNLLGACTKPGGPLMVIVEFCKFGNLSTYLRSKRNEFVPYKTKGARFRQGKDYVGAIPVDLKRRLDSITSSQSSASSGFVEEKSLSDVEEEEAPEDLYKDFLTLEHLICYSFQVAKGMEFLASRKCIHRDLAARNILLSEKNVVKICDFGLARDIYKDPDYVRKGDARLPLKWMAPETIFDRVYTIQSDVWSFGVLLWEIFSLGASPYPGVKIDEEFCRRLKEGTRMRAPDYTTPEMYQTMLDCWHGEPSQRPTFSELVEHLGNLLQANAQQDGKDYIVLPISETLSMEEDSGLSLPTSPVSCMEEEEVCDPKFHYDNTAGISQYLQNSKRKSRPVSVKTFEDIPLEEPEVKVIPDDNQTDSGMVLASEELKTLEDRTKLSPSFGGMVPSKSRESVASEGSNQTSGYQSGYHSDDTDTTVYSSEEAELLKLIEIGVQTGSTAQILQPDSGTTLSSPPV

[6] = target: T4, Serine/threonine-protein kinase Nek5 (Homo sapiens) (UniProt Q6P3R8); assay: Inhibition of human recombinant NEK5 assessed as residual activity at 1 uM pretreated for 20 mins followed by [33P]-ATP addition measured after 120 mins by radiometric hotspot kinase assay relative to control; details: time 140.0 min
T4 sequence (whole entry): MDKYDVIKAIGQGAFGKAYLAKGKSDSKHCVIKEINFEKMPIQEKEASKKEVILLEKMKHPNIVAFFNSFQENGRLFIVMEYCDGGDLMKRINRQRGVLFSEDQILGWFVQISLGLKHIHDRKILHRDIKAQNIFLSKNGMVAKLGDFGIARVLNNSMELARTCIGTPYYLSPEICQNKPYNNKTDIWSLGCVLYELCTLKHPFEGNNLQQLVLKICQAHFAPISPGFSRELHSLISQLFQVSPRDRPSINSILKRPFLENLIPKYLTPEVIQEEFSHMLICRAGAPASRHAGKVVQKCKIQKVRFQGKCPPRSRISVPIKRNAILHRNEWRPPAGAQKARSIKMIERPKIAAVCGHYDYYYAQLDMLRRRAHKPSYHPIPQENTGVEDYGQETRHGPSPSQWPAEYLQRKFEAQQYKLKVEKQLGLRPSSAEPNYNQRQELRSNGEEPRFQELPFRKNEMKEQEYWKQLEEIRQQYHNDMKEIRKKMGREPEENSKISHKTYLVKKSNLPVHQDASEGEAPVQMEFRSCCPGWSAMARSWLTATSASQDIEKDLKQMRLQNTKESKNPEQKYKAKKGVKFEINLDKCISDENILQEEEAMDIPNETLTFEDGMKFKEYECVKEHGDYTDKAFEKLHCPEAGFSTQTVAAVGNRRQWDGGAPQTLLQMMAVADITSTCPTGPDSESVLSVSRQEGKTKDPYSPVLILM

[7] = target: Wee1-like protein kinase (Homo sapiens) (UniProt P30291); assay: Inhibition of human recombinant full length WEE1 expressed in insect cells using MBP as substrate assessed as residual activity at 1 uM pretreated for 20 mins followed by [33P]-ATP addition measured after 120 mins by radiometric hotspot kinase assay relative to control; details: time 140.0 min
Wee1-like protein kinase (Homo sapiens), sequence (P30291 whole entry, looked up): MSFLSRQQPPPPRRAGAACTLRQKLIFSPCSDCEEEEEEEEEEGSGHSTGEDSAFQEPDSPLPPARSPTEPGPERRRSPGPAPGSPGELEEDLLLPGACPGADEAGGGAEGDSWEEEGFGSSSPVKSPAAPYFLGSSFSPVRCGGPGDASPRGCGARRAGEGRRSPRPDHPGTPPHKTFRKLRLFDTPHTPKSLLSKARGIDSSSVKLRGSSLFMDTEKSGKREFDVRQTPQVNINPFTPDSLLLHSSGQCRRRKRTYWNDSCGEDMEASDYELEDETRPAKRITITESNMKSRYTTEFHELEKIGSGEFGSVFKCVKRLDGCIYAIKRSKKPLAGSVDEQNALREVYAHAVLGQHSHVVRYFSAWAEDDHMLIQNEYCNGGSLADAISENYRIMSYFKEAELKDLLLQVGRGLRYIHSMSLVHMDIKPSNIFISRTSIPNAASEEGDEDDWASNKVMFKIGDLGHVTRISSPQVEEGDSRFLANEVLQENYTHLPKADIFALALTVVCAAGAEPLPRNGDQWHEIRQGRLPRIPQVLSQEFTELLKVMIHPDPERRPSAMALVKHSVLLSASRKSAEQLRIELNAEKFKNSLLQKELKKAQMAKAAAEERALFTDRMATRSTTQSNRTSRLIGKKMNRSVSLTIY

[8] = Solubility of the compound in E3 medium with 0.2% DMSO by DAD-HPLC based shake flask method; format: physicochemical
[9] = Solubility of the compound in DMEM with 1% DMSO by DAD-HPLC based shake flask method; format: physicochemical
[10] = Stability of the compound in DMEM measured after 48 hrs by DAD-HPLC method; format: physicochemical; details: read-out: Stability
Danio rerio = species on record: Danio rerio; assay: Toxicity in zebra fish embryos assessed as reduction in heart beat at 1 uM measured every 24 hrs for 120 hrs; format: organism-based; details: zebrafish, in vivo
[11] = target: T1, Serine/threonine-protein kinase Nek1 (Homo sapiens); assay: Inhibition of human NEK1 using myelin basic protein as substrate assessed as residual activity at 10 uM in presence of [gamma-33P]-ATP by radiometric hotspot kinase assay relative to control
[12] = Permeability across apical to basolateral side in human Caco-2 cells at pH 6.5 at 1 uM; format: ADME, cell-based; details: Caco-2, pH 6.5, read-out: permeability
[13] = Permeability across apical to basolateral side in human Caco-2 cells at pH 6.5 assessed as compound recovery at 1 uM; format: ADME, cell-based; details: Caco-2, pH 6.5, read-out: Drug recovery
[14] = Permeability across basolateral to apical side in human Caco-2 cells at pH 7.4 at 1 uM; format: ADME, cell-based; details: Caco-2, pH 7.4, read-out: permeability
[15] = Permeability across basolateral to apical side in human Caco-2 cells at pH 7.4 assessed as compound recovery at 1 uM; format: ADME, cell-based; details: Caco-2, pH 7.4, read-out: Drug recovery

Compound: COC(=O)c1cccc(-c2cnc3[nH]cc(-c4cccc(OC)c4)c3c2)c1
Activity [1]: 12.4%
IC50 [2]: 166 nM
Activity [3]: 19.3%
Activity [4]: > 100%
Activity [5]: 94.1%
Activity [6]: 90%
Activity [7]: > 100%
solubility [8]: 1 µM (≈ 0.358 µg/mL)
solubility [9]: 2 µM (≈ 0.717 µg/mL)
remaining at 48 h [10]: 97%
Activity (Danio rerio): Non-Toxic

Compound: N#Cc1cccc(-c2cnc3[nH]cc(-c4ccncc4)c3c2)c1
Activity [1]: 74.3%

Compound: N#Cc1cccc(-c2cnc3[nH]ccc3c2)c1
Activity [11]: 64.7%

Compound: N#Cc1cccc(-c2cnc3[nH]cc(Br)c3c2)c1
Activity [1]: > 100%

Compound: O=[N+]([O-])c1cccc(-c2cnc3[nH]ccc3c2)c1
Activity [11]: 78.5%

Compound: COC(=O)c1cccc(-c2cnc3[nH]cc(-c4cccc(C)c4)c3c2)c1
Activity [1]: 46.4%

Compound: COC(=O)c1cccc(-c2cnc3[nH]cc(-c4ccccc4OC)c3c2)c1
Activity [1]: 60.9%

Compound: O=C(O)c1cccc(-c2cnc3[nH]ccc3c2)c1
Activity [11]: 72.8%

Compound: CCCCNc1nccc(Nc2cc(C)[nH]n2)n1
Activity [1]: 86.9%

Compound: COC(=O)c1cccc(-c2cnc3[nH]cc(-c4cncnc4)c3c2)c1
Activity [1]: 5.89%
IC50 [2]: 62.5 nM
Activity [3]: 22.3%
Activity [4]: 73.8%
Activity [5]: 61.3%
Activity [6]: 23.3%
Activity [7]: 76.2%
solubility [8]: 4.6 µM (≈ 1.52 µg/mL)
solubility [9]: 28.6 µM (≈ 9.45 µg/mL)
remaining at 48 h [10]: 72%
Papp A→B at 1 µM [12]: 0.37 ×10⁻⁶ cm/s
recovery at 1 µM [13]: 1.5%
Papp B→A at 1 µM [14]: 0.21 ×10⁻⁶ cm/s
recovery at 1 µM [15]: 41.1%

Compound: N#Cc1cccc(-c2cnc3[nH]cc(Cl)c3c2)c1
Activity [1]: > 100%

Compound: N#Cc1cccc(-c2cnc3[nH]cc([N+](=O)[O-])c3c2)c1
Activity [1]: > 100%

Second part, the compound after the results:

Activity [1]: 74.8%
Compound: Cc1cc(Nc2ccnc(Nc3ccccc3)n2)n[nH]1

Activity [1]: 7.31%
IC50 [2]: 123 nM
Activity [3]: 23.5%
Activity [4]: > 100%
Activity [5]: 97.2%
Activity [6]: 78.7%
Activity [7]: 82.9%
solubility [8]: 2.5 µM (≈ 0.821 µg/mL)
solubility [9]: 4.4 µM (≈ 1.44 µg/mL)
remaining at 48 h [10]: 86%
Compound: COC(=O)c1cccc(-c2cnc3[nH]cc(-c4ccccc4)c3c2)c1

Activity [1]: 89.8%
Compound: Cc1cc(Nc2ccnc(N(C)c3ccccc3)n2)n[nH]1

Activity [1]: 90.8%
Compound: Cc1cc(Nc2ccnc(NCc3ccccn3)n2)n[nH]1

Activity [1]: 101%
Compound: Cc1cc(Nc2ccnc(NCc3cccnc3)n2)n[nH]1

Activity [1]: 52.3%
Compound: N#Cc1cccc(-c2cnc3[nH]cc(-c4ccccc4)c3c2)c1

Activity [1]: 65.9%
Compound: c1ccc(Nc2nccc(Nc3cc(-c4ccccc4)[nH]n3)n2)cc1

Activity [1]: 86.8%
Compound: Cc1ccc(CNc2nccc(Nc3cc(C)[nH]n3)n2)cc1

IC50 [2]: 850 nM
Compound: c1ccc(Nc2nccc(Nc3cc(C4CC4)[nH]n3)n2)cc1
